Results published in patent US10723726B2, “Solid forms of (Z)-4-(5-((3-benzyl-4-oxo-2-thioxothiazolidin-5-ylidene)methyl)furan-2-yl)benzoic acid” (GB006, INC., priority 2015, dated 2020).
“Also recorded” adds a separate entry of the source. Like-named read-outs stand apart in the source and are kept apart here.

Assays:
[1] = Rat PK of LA1 free acid, first experiment (2-hydroxypropyl-β-cyclodextrin dose solution); assay type: in vivo, Sprague Dawley (SD) rats; settings: 30% 2-hydroxypropyl-β-cyclodextrin in PBS
Experimental: In a first experiment, the dose solution was prepared in 30% w:v 2-hydroxypropyl-β-cyclodextrin prepared in PBS at 2 mg/kg. Improved bioavailability was needed.

[2] = Solubility estimation by aliquot addition and temperature cycling; assay type: physicochemical; settings: for solubility: thermodynamic from solid, 20° C., read-out: Approx. solubility
Experimental: Aliquots of the test solvent were added to an accurately weighed sample (−10 mg) of LA1 at ambient temperature. The aliquot volumes were typically 200-1000 μL. Complete dissolution of the test material was determined by visual inspection. The solubility was estimated from these experiments based on the total solvent used to provide complete dissolution.
First, the samples were heated from 20° C. to within 3° C. of solvent boiling point (or 100° C., whichever was lower) at 0.5° C./minute; then cooled to 20° C. at 0.2° C./minute while stirring at 800 rpm.
From the infrared (IR) transmission data of the sample vials, dissolution and precipitation events were recorded as the point of complete transmission of IR and the onset of turbidity by IR respectively. Selected samples were also agitated on an orbital shaker at 50° C. and visually observed for dissolution.

[3] = in vivo; settings: C57BL/6, mouse
Experimental: A mouse melanoma tumor cell line, B16-F10, was used for developing a subcutaneous tumor model. 0.1×10^6 cells were injected subcutaneously in the right flank region of the animal. When the tumors reached ˜45 mm^3 the animals were randomized into various groups, each group with 10 animals, so that the average tumor volume of all the groups was similar. Animals were treated from the day of randomization (Day 1). Tumor dimensions (length and diameter) were measured for all animals three times per week, including the termination day of the study. In addition, throughout the study period, mice were monitored daily for clinical conditions. […] Portions of the blood samples were used for blood analysis and clinical chemistry. Lung, heart, liver, spleen, and kidneys were also collected and histopathological analysis was performed.

[4] = Sprague Dawley, in vivo, PO 2 mg/kg

O=C(O)c1ccc(-c2ccc(/C=C3\SC(=S)N(Cc4ccccc4)C3=O)o2)cc1 [LA1, (Z)-4-(5-((3-benzyl-4-oxo-2-thioxothiazolidin-5-ylidene)methyl)furan-2-yl)benzoic acid]
Rat Cl ([1]; PO - 2 mg/kg table): 11.1 mL/min/kg | Vss ([1]; PO - 2 mg/kg table): 0.59 L | AUC [1, 4]: 8.7 µM·h | MRT [1, 4]: 3.49 h | half-life [1, 4]: 122 min | bioavailability ([1]; Sprague Dawley, in vivo, PO 2 mg/kg, read-out: Rat F %): 15.1% | dissolution upon heating ([2]; DMF, 73° C.): 10 mg/mL | solubility by aliquot addition, overall ([2]; all solvents and solvent mixtures tested): insoluble in all solvents tested; also recorded: poor solubility in all solvents tested | solubility ([2]; aqueous with cosolvent or surfactant or cyclodextrin, DMF:water (1:1)): < 10000 µg/mL | solubility ([2]; organic solvent or mixture, DMF:MeOH (1:1)): < 10000 µg/mL | solubility ([2]; organic solvent or mixture, DMF:THF (1:1)): < 7000 µg/mL | solubility ([2]; organic solvent or mixture, MeOH:ACN:dioxane (1:1:1)): < 10000 µg/mL | solubility ([2]; organic solvent or mixture, MeOH:acetone (1:1)): < 10000 µg/mL | solubility ([2]; organic solvent or mixture, THF:Acetone (1:1)): < 10000 µg/mL | solubility ([2]; organic solvent or mixture, THF:MeOH (1:1)): < 10000 µg/mL | solubility ([2]; organic solvent or mixture, THF): < 10000 µg/mL | solubility ([2]; organic solvent or mixture, acetone): < 10000 µg/mL | solubility ([2]; organic solvent or mixture, acetonitrile): < 10000 µg/mL | solubility ([2]; organic solvent or mixture, anisole): < 10000 µg/mL | solubility ([2]; organic solvent or mixture, dichloromethane): < 10000 µg/mL | solubility ([2]; organic solvent or mixture, dimethylformamide): < 10000 µg/mL | solubility ([2]; organic solvent or mixture, hexafluoroisopropanol): < 10000 µg/mL | solubility ([2]; organic solvent or mixture, methanol): < 10000 µg/mL | concentration at 0.5 h ([3]; exposure in blood at end of study): 383 ± 450 ng/mL | concentration at 0.5 h ([3]; exposure in tumor at end of study): 24.7 ± 17.6 ng/mL
